# US20260070945A1, “MACROCYCLIC IMMUNOMODULATORS” (Bristol-Myers Squibb Company, priority 2022, published 2026)
# Where a SMILES comes first, the peptide text is derived from it. Bridges are numbered along the chain shown (N, C = ends). [ ]: non-standard residue; d: D form. The star is where a group is joined. ξ: configuration not given here. Phe(3-CF3) = N[C@@H](Cc1cccc(C(F)(F)F)c1)C(=O)O; Phe(4-CF3) = N[C@@H](Cc1ccc(C(F)(F)F)cc1)C(=O)O; Phe(4-COOH) = N[C@@H](Cc1ccc(C(=O)O)cc1)C(=O)O; Bip = N[C@@H](Cc1ccc(-c2ccccc2)cc1)C(=O)O; Phe(3-Me) = Cc1cccc(C[C@H](N)C(=O)O)c1; Val(3-OH) = CC(C)(O)[C@H](N)C(=O)O; 4Pal = N[C@@H](Cc1ccncc1)C(=O)O; Cha = N[C@@H](CC1CCCCC1)C(=O)O; Cit = NC(=O)NCCC[C@H](N)C(=O)O; Ile(3ξ) = CCC(C)[C@H](N)C(=O)O; Thr(3ξ) = CC(O)[C@H](N)C(=O)O; 3Abz = Nc1cccc(C(=O)O)c1; Carboxymethyl = O=C(O)C*; NMeA = CN[C@@H](C)C(=O)O; Orn = NCCC[C@H](N)C(=O)O; Aun = NCCCCCCCCCCC(=O)O; Dab = NCC[C@H](N)C(=O)O; Dap = NC[C@H](N)C(=O)O; AEEA = NCCOCCOCC(=O)O
# Target: T1, PD-1/PD-L1 interaction (PE-labeled human PD-L1-Ig binding to Jurkat cell line over-expressing human PD-1) (Homo sapiens, UniProt Q15116)
# T1 construct: expressed in transfected cells; host or cells: Jurkat
# Assay: Jurkat-PD-1 Cell Binding High-Content Screening Assay (CBA)
# Settings: Jurkat-hPD-1 cells, PE-labeled PD-L1-Ig 20 nM final; read-out: Jurkat HPD1 PDL1 IC50
# Procedure, shortened: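 Jurkat cells overexpressing human PD-1 (8×10^3/well, DMEM + 10% FCS) preincubated with compound 2 h at 37 °C, then PE-labelled human PD-L1-Ig (20 nM final) for 1 h. Cells fixed in paraformaldehyde with Hoechst 33342; bound PD-L1 quantified by high-content imaging.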
# T1 sequence (Q15116 25-288): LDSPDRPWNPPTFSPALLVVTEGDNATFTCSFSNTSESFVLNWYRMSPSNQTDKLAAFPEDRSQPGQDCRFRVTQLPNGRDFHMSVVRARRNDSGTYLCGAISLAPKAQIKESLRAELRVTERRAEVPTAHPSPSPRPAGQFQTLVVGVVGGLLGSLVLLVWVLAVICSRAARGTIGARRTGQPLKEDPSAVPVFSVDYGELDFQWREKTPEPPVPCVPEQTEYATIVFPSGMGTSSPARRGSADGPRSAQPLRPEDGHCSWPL
row,IC50,Compound
1,101 nM,CCC(C)[C@@H]1NC(=O)[C@H](Cc2ccc(-c3ccccc3)cc2)NC(=O)[C@H](CC(C)C)NC(=O)[C@H](Cc2c[nH]c3ccccc23)NC(=O)[C@H](CC(=O)O)NC(=O)[C@H](Cc2ccc(O)cc2)NC(=O)[C@H](Cc2ccccc2)NC(=O)CSC[C@@H](C(=O)N[C@@H](CN)C(=O)NCCOCCOCC(=O)NCCCCCCCCCCC(=O)O)NC(=O)[C@H](CO)NC(=O)[C@H](C(C)C)NC(=O)[C@H](CC2CCCCC2)NC(=O)[C@H](CCN)NC(=O)[C@@H](CC(C)C)NC(=O)[C@H](C)N(C)C1=O (stereo partly drawn) [Example 2055] ({CH2CO}-FYDWL[Bip][Ile(3ξ)][NMeA][dL][Dab][Cha]VSC[Dap][AEEA][Aun]-OH; thioether N-14)
2,52.4 nM,CC(=O)NCCCC[C@@H]1NC(=O)[C@H](Cc2ccc(-c3ccccc3)cc2)NC(=O)[C@H](Cc2ccc(O)cc2)NC(=O)[C@H](Cc2cccc(C)c2)NC(=O)[C@H](CC(=O)O)NC(=O)[C@H](Cc2ccc(OCC(=O)O)cc2)NC(=O)[C@H](CCN)NC(=O)CSC[C@@H](C(=O)NCCOCCOCC(=O)NCCCCCCCCCCC(=O)O)NC(=O)[C@H](C(C)O)NC(=O)[C@H](C(C)C)NC(=O)[C@H](CC2CCCCC2)NC(=O)[C@H](CCN)NC(=O)[C@@H](CC(C)C)NC(=O)[C@H](C)N(C)C1=O (stereo partly drawn) [Example 2419] ({CH2CO}-[Dab]Y(Carboxymethyl)D[Phe(3-Me)]Y[Bip]K(Ac)[NMeA][dL][Dab][Cha]V[Thr(3ξ)]C[AEEA][Aun]-OH; thioether N-14)
3,21.9 nM,Cc1cccc(C[C@@H]2NC(=O)[C@H](CC(=O)O)NC(=O)[C@H](Cc3ccc(C(=O)O)cc3)NC(=O)[C@H](Cc3ccc(OCC(=O)O)cc3)NC(=O)CSC[C@@H](C(=O)NCCOCCOCC(=O)NCCCCCCCCCCC(=O)O)NC(=O)[C@H](CO)NC(=O)[C@H](C(C)C)NC(=O)[C@H](CC(C)C)NC(=O)[C@H](CC(N)=O)NC(=O)[C@@H](CC(C)C)NC(=O)[C@H](C)N(C)C(=O)[C@H](C(C)C)NC(=O)[C@H](Cc3ccc(-c4ccccc4)cc3)NC(=O)[C@H](CC(C)C)NC2=O)c1 [Example 1027] ({CH2CO}-Y(Carboxymethyl)[Phe(4-COOH)]D[Phe(3-Me)]L[Bip]V[NMeA][dL]NLVSC[AEEA][Aun]-OH; thioether N-14)
4,5.8 nM,CC(=O)NCCCC[C@@H]1NC(=O)[C@H](Cc2ccc(-c3ccccc3)cc2)NC(=O)[C@H](C(C)C)NC(=O)[C@H](Cc2c[nH]c3ccccc23)NC(=O)[C@H](CC(=O)O)NC(=O)[C@H](Cc2ccc(OCC(=O)O)cc2)NC(=O)[C@H](Cc2ccc(OCC(=O)O)cc2)NC(=O)CSC[C@@H](C(=O)NCCOCCOCC(=O)NCCCCCCCCCCC(=O)O)NC(=O)[C@H](C(C)O)NC(=O)[C@H](C(C)C)NC(=O)[C@H](CC2CCCCC2)NC(=O)[C@H](CCN)NC(=O)[C@@H](CC(C)C)NC(=O)[C@H](C)N(C)C1=O (stereo partly drawn) [Example 2321] ({CH2CO}-Y(Carboxymethyl)Y(Carboxymethyl)DWV[Bip]K(Ac)[NMeA][dL][Dab][Cha]V[Thr(3ξ)]C[AEEA][Aun]-OH; thioether N-14)
5,26.1 nM,Cc1cccc(C[C@@H]2NC(=O)[C@H](CC(=O)O)NC(=O)[C@H](Cc3ccc(C(=O)O)cc3)NC(=O)[C@H](Cc3ccncc3)NC(=O)CSC[C@@H](C(=O)N[C@@H](CCN)C(=O)NCCOCCOCC(=O)NCCCCCCCCCCC(=O)O)NC(=O)[C@H](CCCN)NC(=O)[C@H](C(C)C)NC(=O)[C@H](CC3CCCCC3)NC(=O)[C@H](CCN)NC(=O)[C@@H](CC(C)C)NC(=O)[C@H](C)N(C)C(=O)[C@H](CCCNC(N)=O)NC(=O)[C@H](Cc3ccc(-c4ccccc4)cc3)NC(=O)[C@H](Cc3ccc(C(=O)O)cc3)NC2=O)c1 [Example 1404] ({CH2CO}-[4Pal][Phe(4-COOH)]D[Phe(3-Me)][Phe(4-COOH)][Bip][Cit][NMeA][dL][Dab][Cha]V[Orn]C[Dab][AEEA][Aun]-OH; thioether N-14)
6,10.6 nM,CC(C)C[C@@H]1NC(=O)[C@H](Cc2c[nH]c3ccccc23)NC(=O)[C@H](CC(=O)O)NC(=O)[C@H](Cc2ccc(C(=O)O)cc2)NC(=O)[C@H](Cc2ccc(OCC(=O)O)cc2)NC(=O)CSC[C@@H](C(=O)NCC(=O)N[C@@H](CCCN)C(=O)NCC(=O)NCCCCCCCCCCC(=O)O)NC(=O)[C@H](CO)NC(=O)[C@H](C(C)C)NC(=O)[C@H](CC2CCCCC2)NC(=O)[C@H](CCN)NC(=O)[C@@H](CC(C)C)NC(=O)[C@H](C)N(C)C(=O)[C@H](C(C)C)NC(=O)[C@H](Cc2ccc(-c3ccccc3)cc2)NC1=O [Example 1030] ({CH2CO}-Y(Carboxymethyl)[Phe(4-COOH)]DWL[Bip]V[NMeA][dL][Dab][Cha]VSCG[Orn]G[Aun]-OH; thioether N-14)
7,777 nM,CCC(C)[C@@H]1NC(=O)[C@H](Cc2ccc(-c3ccccc3)cc2)NC(=O)[C@H](CC(C)C)NC(=O)[C@H](Cc2c[nH]c3ccccc23)NC(=O)[C@H](CC(=O)O)NC(=O)[C@H](Cc2ccc(O)cc2)NC(=O)[C@H](Cc2ccncc2)NC(=O)CSC[C@@H](C(=O)N[C@H](CC(N)=O)C(=O)NCCOCCOCC(=O)N[C@@H](CCN)C(=O)NCCOCCOCC(=O)NCCCCCCCCCCC(=O)O)NC(=O)[C@H](CO)NC(=O)[C@H](C(C)C)NC(=O)[C@H](CC(C)C)NC(=O)[C@H](CC(N)=O)NC(=O)[C@@H](CC(C)C)NC(=O)[C@H](C)N(C)C1=O (stereo partly drawn) [Example 2061] ({CH2CO}-[4Pal]YDWL[Bip][Ile(3ξ)][NMeA][dL]NLVSC[dN][AEEA][Dab][AEEA][Aun]-OH; thioether N-14)
8,265 nM,CC(C)C[C@@H]1NC(=O)[C@H](Cc2c[nH]c3ccccc23)NC(=O)[C@H](CC(=O)O)NC(=O)[C@H](Cc2ccncc2)NC(=O)[C@H](Cc2ccc(OCC(=O)O)cc2)NC(=O)CSC[C@@H](C(=O)Nc2cccc(C(=O)NCCCCCCCCCCC(=O)O)c2)NC(=O)[C@H](CN)NC(=O)[C@H](C(C)C)NC(=O)[C@H](CC2CCCCC2)NC(=O)[C@H](CCN)NC(=O)[C@@H](CC(C)C)NC(=O)[C@H](C)N(C)C(=O)[C@H](C(C)C)NC(=O)[C@H](Cc2ccc(-c3ccccc3)cc2)NC1=O [Example 1216] ({CH2CO}-Y(Carboxymethyl)[4Pal]DWL[Bip]V[NMeA][dL][Dab][Cha]V[Dap]C[3Abz][Aun]-OH; thioether N-14)
9,24.7 nM,CC(C)C[C@@H]1NC(=O)[C@H](Cc2c[nH]c3ccccc23)NC(=O)[C@H](CC(=O)O)NC(=O)[C@H](Cc2ccncc2)NC(=O)[C@H](Cc2ccc(OCC(=O)O)cc2)NC(=O)CSC[C@@H](C(=O)N[C@@H](CCCN)C(=O)NCCOCCOCC(=O)NCCCCCCCCCCC(=O)O)NC(=O)[C@H](CCCNC(N)=O)NC(=O)[C@H](C(C)C)NC(=O)[C@H](CC2CCCCC2)NC(=O)[C@H](CN)NC(=O)[C@@H](CC(C)C)NC(=O)[C@H](C)N(C)C(=O)[C@H](C(C)C)NC(=O)[C@H](Cc2ccc(-c3ccccc3)cc2)NC1=O [Example 2166] ({CH2CO}-Y(Carboxymethyl)[4Pal]DWL[Bip]V[NMeA][dL][Dap][Cha]V[Cit]C[Orn][AEEA][Aun]-OH; thioether N-14)
10,12.7 nM,Cc1cccc(C[C@@H]2NC(=O)[C@H](CC(=O)O)NC(=O)[C@H](Cc3ccc(OCC(=O)O)cc3)NC(=O)[C@H](CN)NC(=O)CSC[C@@H](C(=O)N[C@@H](CCN)C(=O)NCCCCCCCCCCC(=O)O)NC(=O)[C@H](CO)NC(=O)[C@H](C(C)C)NC(=O)[C@H](CC3CCCCC3)NC(=O)[C@H](CCN)NC(=O)[C@@H](CC(C)C)NC(=O)[C@H](C)N(C)C(=O)[C@H](Cc3ccc(OCC(=O)O)cc3)NC(=O)[C@H](Cc3ccc(-c4ccccc4)cc3)NC(=O)[C@H](Cc3ccc(OCC(=O)O)cc3)NC2=O)c1 [Example 1263] ({CH2CO}-[Dap]Y(Carboxymethyl)D[Phe(3-Me)]Y(Carboxymethyl)[Bip]Y(Carboxymethyl)[NMeA][dL][Dab][Cha]VSC[Dab][Aun]-OH; thioether N-14)
11,20.5 nM,CC(C)C[C@@H]1NC(=O)[C@H](Cc2c[nH]c3ccccc23)NC(=O)[C@H](CC(=O)O)NC(=O)[C@H](Cc2ccc(C(=O)O)cc2)NC(=O)[C@H](Cc2ccc(OCC(=O)O)cc2)NC(=O)CSC[C@@H](C(=O)NCC(=O)N[C@@H](CC(=O)O)C(=O)NCC(=O)NCCCCCCCCCCC(=O)O)NC(=O)[C@H](CO)NC(=O)[C@H](C(C)C)NC(=O)[C@H](CC2CCCCC2)NC(=O)[C@H](CCN)NC(=O)[C@@H](CC(C)C)NC(=O)[C@H](C)N(C)C(=O)[C@H](C(C)C)NC(=O)[C@H](Cc2ccc(-c3ccccc3)cc2)NC1=O [Example 1033] ({CH2CO}-Y(Carboxymethyl)[Phe(4-COOH)]DWL[Bip]V[NMeA][dL][Dab][Cha]VSCGDG[Aun]-OH; thioether N-14)

# Same assay, conditions: PE-labeled PD-L1-Ig 20 nM final, Jurkat-hPD-1 cells; read-out: Jurkat HPD1 PDL1 IC50
row,IC50,Compound
1,11.7 nM,CC(=O)NCCCC[C@@H]1NC(=O)[C@H](C(C)(C)O)NC(=O)[C@H](CC2CCCCC2)NC(=O)[C@H](CCN)NC(=O)[C@@H](CC(C)C)NC(=O)[C@H](C)N(C)C(=O)[C@H](CCC(N)=O)NC(=O)[C@H](Cc2ccc(-c3ccccc3)cc2)NC(=O)[C@H](Cc2ccc(C(=O)O)cc2)NC(=O)[C@H](Cc2cccc(C)c2)NC(=O)[C@H](CC(=O)O)NC(=O)[C@H](Cc2ccc(C(F)(F)F)cc2)NC(=O)[C@H](Cc2ccc(OCC(=O)O)cc2)NC(=O)CSC[C@@H](C(=O)N[C@@H](CCN)C(=O)NCCOCCOCC(=O)NCCCCCCCCCCC(=O)O)NC1=O [Example 2595] ({CH2CO}-Y(Carboxymethyl)[Phe(4-CF3)]D[Phe(3-Me)][Phe(4-COOH)][Bip]Q[NMeA][dL][Dab][Cha][Val(3-OH)]K(Ac)C[Dab][AEEA][Aun]-OH; thioether N-14)
2,2.7 nM,CC(=O)NCCCC[C@@H]1NC(=O)[C@H](C(C)(C)O)NC(=O)[C@H](CC2CCCCC2)NC(=O)[C@H](CCN)NC(=O)[C@@H](CC(C)C)NC(=O)[C@H](C)N(C)C(=O)[C@H](CCCNC(N)=O)NC(=O)[C@H](Cc2ccc(-c3ccccc3)cc2)NC(=O)[C@H](Cc2ccc(C(=O)O)cc2)NC(=O)[C@H](Cc2cccc(C(F)(F)F)c2)NC(=O)[C@H](CC(=O)O)NC(=O)[C@H](Cc2ccc(OCC(=O)O)cc2)NC(=O)[C@H](Cc2ccc(OCC(=O)O)cc2)NC(=O)CSC[C@@H](C(=O)N[C@@H](CCN)C(=O)NCCCCCCCCCCC(=O)O)NC1=O [Example 2570] ({CH2CO}-Y(Carboxymethyl)Y(Carboxymethyl)D[Phe(3-CF3)][Phe(4-COOH)][Bip][Cit][NMeA][dL][Dab][Cha][Val(3-OH)]K(Ac)C[Dab][Aun]-OH; thioether N-14)
